According to the supplement of paper PMC10307832:

How the values were obtained:
Test in all cases: relative viability (nuclei count vs DMSO), 5 days (fraction); higher = more cells survive
[1] = tested on: NCI-H1944
How it was run: (§1)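 Cells from lung cancer lines were seeded into 1536-well plates and, one day later, dosed by pin tool. Treatments were either a single drug or a fixed dose of an anchor drug with five library-drug doses (not always all listed) in √10 steps. After 5 days, nuclei were stained in a one-step fixation (final 0.05% Triton X-100, 1% formaldehyde, 1 ug/ml Hoechst) and counted on 4× images, and relative viability is the treated-to-vehicle nuclei ratio, as the median of duplicate plates.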

[2] = tested on: NCI-H2170
How it was run: as §1

[3] = tested on: NCI-H2087
How it was run: as §1

[4] = tested on: NCI-H3122
How it was run: as §1

[5] = tested on: NCI-H1651
How it was run: as §1

[6] = tested on: NCI-H2405
How it was run: as §1

[7] = tested on: ChaGo-K-1
How it was run: as §1

[8] = tested on: HCC-366
How it was run: as §1

[9] = tested on: NCI-H1755
How it was run: as §1

[10] = tested on: NCI-H2228
How it was run: as §1

[11] = tested on: RERF-LC-KJ
How it was run: as §1

[12] = tested on: NCI-H460
How it was run: as §1

[13] = tested on: UMC-11
How it was run: as §1

[14] = tested on: LOU-NH91
How it was run: as §1

[15] = tested on: NCI-H1793
How it was run: as §1

[16] = tested on: NCI-H1395
How it was run: as §1

[17] = tested on: LU99A
How it was run: as §1

[18] = tested on: LC-2-ad
How it was run: as §1

[19] = tested on: CAL-12T
How it was run: as §1

[20] = tested on: HCC-78
How it was run: as §1

[21] = tested on: ABC-1
How it was run: as §1

[22] = tested on: PC-3 [JPC-3]
How it was run: as §1

COc1cc2nccc(Oc3ccc(NC(=O)Nc4cc(C)on4)c(Cl)c3)c2cc1OC [Tivozanib] + Cc1cc(Nc2cc(N3CCN(C)CC3)nc(Sc3ccc(NC(=O)C4CC4)cc3)n2)n[nH]1 [Tozasertib] (partner 0.1 µM)
relative viability ([1]; first compound 0.005 µM): 0.251 | relative viability ([1]; first compound 0.01581 µM): 0.245 | relative viability ([1]; first compound 0.05 µM): 0.257 | relative viability ([1]; first compound 0.1581 µM): 0.269 | relative viability ([1]; first compound 0.5 µM): 0.297 | relative viability ([2]; first compound 0.005 µM): 0.673 | relative viability ([2]; first compound 0.01581 µM): 0.685 | relative viability ([2]; first compound 0.05 µM): 0.801 | relative viability ([2]; first compound 0.1581 µM): 0.671 | relative viability ([2]; first compound 0.5 µM): 0.784 | relative viability ([3]; first compound 0.005 µM): 0.22 | relative viability ([3]; first compound 0.01581 µM): 0.316 | relative viability ([3]; first compound 0.05 µM): 0.261 | relative viability ([3]; first compound 0.1581 µM): 0.338 | relative viability ([3]; first compound 0.5 µM): 0.303 | relative viability ([4]; first compound 0.005 µM): 0.418 | relative viability ([4]; first compound 0.01581 µM): 0.428 | relative viability ([4]; first compound 0.05 µM): 0.468 | relative viability ([4]; first compound 0.1581 µM): 0.586 | relative viability ([4]; first compound 0.5 µM): 0.253 | relative viability ([5]; first compound 0.005 µM): 0.698 | relative viability ([5]; first compound 0.01581 µM): 0.768 | relative viability ([5]; first compound 0.05 µM): 0.758 | relative viability ([5]; first compound 0.1581 µM): 0.764 | relative viability ([5]; first compound 0.5 µM): 0.565 | relative viability ([6]; first compound 0.005 µM): 0.676 | relative viability ([6]; first compound 0.01581 µM): 0.753 | relative viability ([6]; first compound 0.05 µM): 0.841 | relative viability ([6]; first compound 0.1581 µM): 0.879 | relative viability ([6]; first compound 0.5 µM): 0.711 | relative viability ([7]; first compound 0.005 µM): 0.226 | relative viability ([7]; first compound 0.01581 µM): 0.247 | relative viability ([7]; first compound 0.05 µM): 0.216 | relative viability ([7]; first compound 0.1581 µM): 0.256 | relative viability ([7]; first compound 0.5 µM): 0.186 | relative viability ([8]; first compound 0.005 µM): 0.094 | relative viability ([8]; first compound 0.01581 µM): 0.115 | relative viability ([8]; first compound 0.05 µM): 0.156 | relative viability ([8]; first compound 0.1581 µM): 0.137 | relative viability ([8]; first compound 0.5 µM): 0.111 | relative viability ([9]; first compound 0.005 µM): 0.565 | relative viability ([9]; first compound 0.01581 µM): 0.581 | relative viability ([9]; first compound 0.05 µM): 0.588 | relative viability ([9]; first compound 0.1581 µM): 0.666 | relative viability ([9]; first compound 0.5 µM): 0.531 | relative viability ([10]; first compound 0.005 µM): 0.232 | relative viability ([10]; first compound 0.01581 µM): 0.235 | relative viability ([10]; first compound 0.05 µM): 0.25 | relative viability ([10]; first compound 0.1581 µM): 0.26 | relative viability ([10]; first compound 0.5 µM): 0.274 | relative viability ([11]; first compound 0.005 µM): 0.477 | relative viability ([11]; first compound 0.01581 µM): 0.482 | relative viability ([11]; first compound 0.05 µM): 0.533 | relative viability ([11]; first compound 0.1581 µM): 0.534 | relative viability ([11]; first compound 0.5 µM): 0.496 | relative viability ([12]; first compound 0.005 µM): 0.394 | relative viability ([12]; first compound 0.01581 µM): 0.394 | relative viability ([12]; first compound 0.05 µM): 0.536 | relative viability ([12]; first compound 0.1581 µM): 0.554 | relative viability ([12]; first compound 0.5 µM): 0.446 | relative viability ([13]; first compound 0.005 µM): 0.208 | relative viability ([13]; first compound 0.01581 µM): 0.2 | relative viability ([13]; first compound 0.05 µM): 0.198 | relative viability ([13]; first compound 0.5 µM): 0.211 | relative viability ([14]; first compound 0.005 µM): 0.644 | relative viability ([14]; first compound 0.01581 µM): 0.669 | relative viability ([14]; first compound 0.05 µM): 0.775 | relative viability ([14]; first compound 0.1581 µM): 0.759 | relative viability ([14]; first compound 0.5 µM): 0.659 | relative viability ([15]; first compound 0.005 µM): 0.335 | relative viability ([15]; first compound 0.01581 µM): 0.45 | relative viability ([15]; first compound 0.05 µM): 0.392 | relative viability ([15]; first compound 0.1581 µM): 0.376 | relative viability ([15]; first compound 0.5 µM): 0.359 | relative viability ([16]; first compound 0.005 µM): 0.734 | relative viability ([16]; first compound 0.01581 µM): 0.738 | relative viability ([16]; first compound 0.05 µM): 0.81 | relative viability ([16]; first compound 0.1581 µM): 0.681 | relative viability ([16]; first compound 0.5 µM): 0.807 | relative viability ([17]; first compound 0.005 µM): 0.299 | relative viability ([17]; first compound 0.01581 µM): 0.279 | relative viability ([17]; first compound 0.05 µM): 0.307 | relative viability ([17]; first compound 0.1581 µM): 0.275 | relative viability ([17]; first compound 0.5 µM): 0.256 | relative viability ([18]; first compound 0.005 µM): 0.408 | relative viability ([18]; first compound 0.01581 µM): 0.486 | relative viability ([18]; first compound 0.05 µM): 0.484 | relative viability ([18]; first compound 0.1581 µM): 0.399 | relative viability ([18]; first compound 0.5 µM): 0.408 | relative viability ([19]; first compound 0.005 µM): 0.281 | relative viability ([19]; first compound 0.01581 µM): 0.314 | relative viability ([19]; first compound 0.05 µM): 0.373 | relative viability ([19]; first compound 0.1581 µM): 0.277 | relative viability ([19]; first compound 0.5 µM): 0.299 | relative viability ([20]; first compound 0.005 µM): 0.324 | relative viability ([20]; first compound 0.01581 µM): 0.472 | relative viability ([20]; first compound 0.05 µM): 0.347 | relative viability ([20]; first compound 0.1581 µM): 0.501 | relative viability ([20]; first compound 0.5 µM): 0.328 | relative viability ([21]; first compound 0.005 µM): 0.167 | relative viability ([21]; first compound 0.01581 µM): 0.185 | relative viability ([21]; first compound 0.05 µM): 0.188 | relative viability ([21]; first compound 0.1581 µM): 0.159 | relative viability ([21]; first compound 0.5 µM): 0.168 | relative viability ([22]; first compound 0.005 µM): 0.802 | relative viability ([22]; first compound 0.01581 µM): 0.869 | relative viability ([22]; first compound 0.05 µM): 0.94 | relative viability ([22]; first compound 0.1581 µM): 0.77 | relative viability ([22]; first compound 0.5 µM): 0.837
